# System: GDF8 signaling (p-SMAD-3 (Ser423/425))
# Test: AlphaScreen SureFire SMAD3 (p-Ser423/425) assay, GDF8-stimulated cells (GDF pSMAD)
# Format: cell-based
# Settings: MPC11; GDF8-stimulated; p-SMAD3 AlphaScreen; read-out: GDF pSMAD (MPC11) (inhibition of GDF8 signaling)
row,Compound,IC50
1,"Cc1cc(-c2ncccc2-c2ccc3ncc(C(=O)NC4CC5CCC(C4)N5C)n3c2)ccc1F (stereo not drawn) [compound 712, exo-6-(2-(4-Fluoro-3-methylphenyl)pyridin-3-yl)-N-(8-methyl-8-azabicyclo[3.2.1]octan-3-yl)imidazo[1,2-a]pyridine-3-carboxamide]",4060 nM
2,"Cc1cc(-c2ncccc2-c2ccc3ncc(C(=O)NC4CC5CCC(C4)N5C)n3c2)ccc1F (stereo not drawn) [compound 713, endo-6-(2-(4-Fluoro-3-methylphenyl)pyridin-3-yl)-N-(8-methyl-8-azabicyclo[3.2.1]octan-3-yl)imidazo[1,2-a]pyridine-3-carboxamide]",10200 nM
3,"Cc1cc(-c2ncccc2-c2ccn3ncc(C(=O)NC4CC5CCC(C4)N5C)c3c2)ccc1F (stereo not drawn) [compound 715, exo-5-(2-(4-Fluoro-3-methylphenyl)pyridin-3-yl)-N-(8-methyl-8-azabicyclo[3.2.1]octan-3-yl)pyrazolo[1,5-a]pyridine-3-carboxamide]",2030 nM
4,"Cc1cc(-c2ncccc2-c2ccn3ncc(C(=O)NC4CC5CCC(C4)N5C)c3c2)ccc1F (stereo not drawn) [compound 716, endo-5-(2-(4-Fluoro-3-methylphenyl)pyridin-3-yl)-N-(8-methyl-8-azabicyclo[3.2.1]octan-3-yl)pyrazolo[1,5-a]pyridine-3-carboxamide]",5030 nM

# Same assay, conditions: Mus musculus, MPC-11, MPC11; GDF8-stimulated; p-SMAD3 AlphaScreen; read-out: GDF pSMAD (MPC11) (inhibition of GDF8 signaling)
row,Compound,IC50
1,"Fc1ccc(-c2ncccc2-c2ccc3nccnc3c2)cc1Cl [compound 690, 6-(2-(3-Chloro-4-fluorophenyl)pyridin-3-yl)quinoxaline]",414 nM
2,"Fc1ccc(-c2ncccc2-c2ccc3ncccc3n2)cc1Cl [compound 691, 2-(2-(3-Chloro-4-fluorophenyl)pyridin-3-yl)-1,5-naphthyridine]",447 nM
3,"Fc1ccc(-c2ncccc2-c2ccc3ncnn3c2)cc1Cl [compound 692, 6-(2-(3-Chloro-4-fluorophenyl)pyridin-3-yl)-[1,2,4]triazolo[1,5-a]pyridine]",436 nM
4,"Fc1cc(F)c(-c2ncccc2-c2ccc3ncsc3c2)cc1F [compound 693, 6-(2-(2,4,5-Trifluorophenyl)pyridin-3-yl)benzo[d]thiazole]",507 nM
5,"Fc1cc(F)c(-c2ncccc2-c2ccc3nccn3c2)cc1F [compound 694, 6-(2-(2,4,5-Trifluorophenyl)pyridin-3-yl)imidazo[1,2-a]pyridine]",794 nM
6,"N#Cc1cnc2ccc(-c3cccnc3-c3cc(F)c(F)cc3F)cn12 [compound 695, 6-(2-(2,4,5-Trifluorophenyl)pyridin-3-yl)imidazo[1,2-a]pyridine-3-carbonitrile]",1520 nM
7,"Fc1cc(F)c(-c2ncccc2-c2ccc3ncccc3c2)cc1F [compound 696, 6-(2-(2,4,5-Trifluorophenyl)pyridin-3-yl)quinoline]",2110 nM
8,"N#Cc1cnc2ccc(-c3cccnc3-c3cccc(Cl)c3)cn12 [compound 697, 6-(2-(3-Chlorophenyl)pyridin-3-yl)imidazo[1,2-a]pyridine-3-carbonitrile]",415 nM
9,"Clc1cccc(-c2ncccc2-c2ccc3nccn3c2)c1 [compound 698, 6-(2-(3-Chlorophenyl)pyridin-3-yl)imidazo[1,2-a]pyridine]",145 nM
10,"Clc1cccc(-c2ncccc2-c2ccc3ncccc3c2)c1 [compound 699, 6-(2-(3-Chlorophenyl)pyridin-3-yl)quinolone]",2300 nM
11,"Cc1cc(-c2ncccc2-c2ccc3ncc(C(=O)NC4CCN(C(C)C)CC4)n3c2)ccc1F [compound 700, 6-(2-(4-Fluoro-3-methylphenyl)pyridin-3-yl)-N-(1-isopropylpiperidin-4-yl)imidazo[1,2-a]pyridine-3-carboxamide]",138 nM
12,"Cc1cc(-c2ncccc2-c2ccn3ncc(C(=O)NC4CCN(C(C)C)CC4)c3c2)ccc1F [compound 701, 5-(2-(4-Fluoro-3-methylphenyl)pyridin-3-yl)-N-(1-isopropylpiperidin-4-yl)pyrazolo[1,5-a]pyridine-3-carboxamide]",167 nM
13,"Cc1cc(-c2ncccc2-c2ccc3ncc(C(=O)NC4CC(C)(C)N(C)C(C)(C)C4)n3c2)ccc1F [compound 702, 6-(2-(4-Fluoro-3-methylphenyl)pyridin-3-yl)-N-(1,2,2,6,6-pentamethylpiperidin-4-yl)imidazo[1,2-a]pyridine-3-carboxamide]",882 nM
14,"Cc1cc(-c2ncccc2-c2ccn3ncc(C(=O)NC4CC(C)(C)N(C)C(C)(C)C4)c3c2)ccc1F [compound 703, 5-(2-(4-Fluoro-3-methylphenyl)pyridin-3-yl)-N-(1,2,2,6,6-pentamethylpiperidin-4-yl)pyrazolo[1,5-a]pyridine-3-carboxamide]",208 nM
15,"Cc1cc(-c2ncccc2-c2ccc3ncc(C(=O)NCCCO)n3c2)ccc1F [compound 704, 6-(2-(4-Fluoro-3-methylphenyl)pyridin-3-yl)-N-(3-hydroxypropyl)imidazo[1,2-a]pyridine-3-carboxamide]",280 nM
16,"Cc1cc(-c2ncccc2-c2ccc3ncc(C(=O)NCCO)n3c2)ccc1F [compound 705, 6-(2-(4-Fluoro-3-methylphenyl)pyridin-3-yl)-N-(2-hydroxyethyl)imidazo[1,2-a]pyridine-3-carboxamide]",122 nM
17,"Cc1cc(-c2ncccc2-c2ccn3ncc(C(=O)NCCCO)c3c2)ccc1F [compound 706, 5-(2-(4-Fluoro-3-methylphenyl)pyridin-3-yl)-N-(3-hydroxypropyl)pyrazolo[1,5-a]pyridine-3-carboxamide]",228 nM
18,"Cc1cc(-c2ncccc2-c2ccn3ncc(C(=O)NCCO)c3c2)ccc1F [compound 707, 5-(2-(4-Fluoro-3-methylphenyl)pyridin-3-yl)-N-(2-hydroxyethyl)pyrazolo[1,5-a]pyridine-3-carboxamide]",222 nM
19,"CN1CCC(NC(=O)c2cnc3ccc(-c4cccnc4-c4cccc(Cl)c4)cn23)CC1 [compound 708, 6-(2-(3-Chlorophenyl)pyridin-3-yl)-N-(1-methylpiperidin-4-yl)imidazo[1,2-a]pyridine-3-carboxamide]",266 nM
20,"CN1CCC(NC(=O)c2cnc3ccc(-c4cccnc4-c4ccc(F)c(Cl)c4)cn23)CC1 [compound 709, 6-(2-(3-Chloro-4-fluorophenyl)pyridin-3-yl)-N-(1-methylpiperidin-4-yl)imidazo[1,2-a]pyridine-3-carboxamide]",252 nM
21,"CN1CCC(NC(=O)c2cnc3ccc(-c4cccnc4-c4cc(F)c(F)cc4F)cn23)CC1 [compound 710, N-(1-Methylpiperidin-4-yl)-6-(2-(2,4,5-Trifluorophenyl)pyridin-3-yl)imidazo[1,2-a]pyridine-3-carboxamide]",1220 nM
22,"Fc1ccc(Cl)cc1-c1ncccc1-c1ccc2ncsc2c1 [compound 717, 6-(2-(5-Chloro-2-fluorophenyl)pyridin-3-yl)benzo[d]thiazole]",217 nM
23,"Fc1cc(F)c(-c2ncccc2-c2ccc3ncsc3c2)cc1Cl [compound 718, 6-(2-(5-Chloro-2,4-difluorophenyl)pyridin-3-yl)benzo[d]thiazole]",314 nM
24,"N#Cc1cnc2ccc(-c3cccnc3-c3cc(Cl)ccc3F)cn12 [compound 719, 6-(2-(5-Chloro-2-fluorophenyl)pyridin-3-yl)imidazo[1,2-a]pyridine-3-carbonitrile]",402 nM
25,"N#Cc1cnc2ccc(-c3cccnc3-c3cc(Cl)c(F)cc3F)cn12 [compound 720, 6-(2-(5-Chloro-2,4-difluorophenyl)pyridin-3-yl)imidazo[1,2-a]pyridine-3-carbonitrile]",822 nM
